In PubChem BioAssay (NCI):
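Where inhibition never reached the appropriate level, the endpoint shown equals the highest concentration tested. Otherwise, values were interpolated linearly from a five-concentration, 48-hour dose response in 96-well plates. Abbreviation: GI50, concentration required for 50% inhibition of growth. TGI is the concentration that stops growth completely.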

Legend:
Test in all cases: growth of human tumour cells (NCI), 48 h
COLO 205 colon = tested on: COLO 205 colon
OVCAR-4 ovarian = tested on: OVCAR-4 ovarian
U251 CNS = tested on: U251 CNS
HCT-116 colon = tested on: HCT-116 colon
SN12C renal = tested on: SN12C renal
A498 renal = tested on: A498 renal
SNB-75 CNS = tested on: SNB-75 CNS
M14 melanoma = tested on: M14 melanoma
LXFL 529 NSCLC = tested on: LXFL 529 NSCLC
SF-268 CNS = tested on: SF-268 CNS
RPMI-8226 leukemia = tested on: RPMI-8226 leukemia
NCI-H226 lung = tested on: NCI-H226 lung
RXF 393 renal = tested on: RXF 393 renal
OVCAR-5 ovarian = tested on: OVCAR-5 ovarian
KM20L2 colon = tested on: KM20L2 colon
SK-MEL-28 melanoma = tested on: SK-MEL-28 melanoma
CCRF-CEM leukemia = tested on: CCRF-CEM leukemia
HCT-15 colon = tested on: HCT-15 colon
XF 498 CNS = tested on: XF 498 CNS
HL-60(TB) leukemia = tested on: HL-60(TB) leukemia
DLD-1 colon = tested on: DLD-1 colon
SK-MEL-2 melanoma = tested on: SK-MEL-2 melanoma
DMS 114 small cell lung = tested on: DMS 114 small cell lung
SK-OV-3 ovarian = tested on: SK-OV-3 ovarian
A549 NSCLC = tested on: A549 NSCLC
EKVX NSCLC = tested on: EKVX NSCLC
SW-620 colon = tested on: SW-620 colon
NCI-H522 lung = tested on: NCI-H522 lung
HOP-62 NSCLC = tested on: HOP-62 NSCLC
HCC-2998 colon = tested on: HCC-2998 colon
ACHN renal = tested on: ACHN renal
KM12 colon = tested on: KM12 colon
LOX IMVI melanoma = tested on: LOX IMVI melanoma
SNB-78 CNS = tested on: SNB-78 CNS
DMS 273 small cell lung = tested on: DMS 273 small cell lung
OVCAR-8 ovarian = tested on: OVCAR-8 ovarian
HOP-92 NSCLC = tested on: HOP-92 NSCLC
SF-295 CNS = tested on: SF-295 CNS
SNB-19 CNS = tested on: SNB-19 CNS
SK-MEL-5 melanoma = tested on: SK-MEL-5 melanoma
SR leukemia = tested on: SR leukemia
NCI-H23 lung = tested on: NCI-H23 lung
IGROV1 ovarian = tested on: IGROV1 ovarian
TK-10 renal = tested on: TK-10 renal
NCI-H460 lung = tested on: NCI-H460 lung
M19-MEL melanoma = tested on: M19-MEL melanoma
HT29 colon = tested on: HT29 colon
SF-539 CNS = tested on: SF-539 CNS
MALME-3M melanoma = tested on: MALME-3M melanoma
UACC-257 melanoma = tested on: UACC-257 melanoma
UACC-62 melanoma = tested on: UACC-62 melanoma
MOLT-4 leukemia = tested on: MOLT-4 leukemia
OVCAR-3 ovarian = tested on: OVCAR-3 ovarian
786-0 renal = tested on: 786-0 renal
CAKI-1 renal = tested on: CAKI-1 renal
K-562 leukemia = tested on: K-562 leukemia
UO-31 renal = tested on: UO-31 renal

NCCSCC(N)C(=O)O (centres undefined)
GI50 (COLO 205 colon): > 497 µM
TGI (COLO 205 colon): > 497 µM
TGI (OVCAR-4 ovarian): > 497 µM
TGI (U251 CNS): > 497 µM
GI50 (HCT-116 colon): > 497 µM
TGI (HCT-116 colon): > 497 µM
TGI (SN12C renal): > 497 µM
TGI (A498 renal): > 497 µM
GI50 (SNB-75 CNS): 470 µM
TGI (SNB-75 CNS): > 497 µM
TGI (M14 melanoma): > 497 µM
TGI (LXFL 529 NSCLC): > 497 µM
TGI (SF-268 CNS): > 497 µM
GI50 (RPMI-8226 leukemia): > 497 µM
TGI (RPMI-8226 leukemia): > 497 µM
TGI (NCI-H226 lung): > 497 µM
TGI (RXF 393 renal): > 497 µM
TGI (OVCAR-5 ovarian): > 497 µM
TGI (KM20L2 colon): > 497 µM
TGI (SK-MEL-28 melanoma): > 497 µM
GI50 (CCRF-CEM leukemia): > 497 µM
TGI (CCRF-CEM leukemia): > 497 µM
GI50 (HCT-15 colon): > 497 µM
TGI (HCT-15 colon): > 497 µM
TGI (XF 498 CNS): > 497 µM
TGI (HL-60(TB) leukemia): > 497 µM
TGI (DLD-1 colon): > 497 µM
TGI (SK-MEL-2 melanoma): > 497 µM
TGI (DMS 114 small cell lung): > 497 µM
TGI (SK-OV-3 ovarian): > 497 µM
GI50 (A549 NSCLC): > 497 µM
TGI (A549 NSCLC): > 497 µM
TGI (EKVX NSCLC): > 497 µM
GI50 (SW-620 colon): > 497 µM
TGI (SW-620 colon): > 497 µM
GI50 (NCI-H522 lung): > 497 µM
TGI (NCI-H522 lung): > 497 µM
TGI (HOP-62 NSCLC): > 497 µM
TGI (HCC-2998 colon): > 497 µM
GI50 (ACHN renal): > 497 µM
TGI (ACHN renal): > 497 µM
GI50 (KM12 colon): > 497 µM
TGI (KM12 colon): > 497 µM
TGI (LOX IMVI melanoma): > 497 µM
TGI (SNB-78 CNS): > 497 µM
TGI (DMS 273 small cell lung): > 497 µM
TGI (OVCAR-8 ovarian): > 497 µM
TGI (HOP-92 NSCLC): > 497 µM
TGI (SF-295 CNS): > 497 µM
TGI (SNB-19 CNS): > 497 µM
GI50 (SK-MEL-5 melanoma): > 497 µM
TGI (SK-MEL-5 melanoma): > 497 µM
TGI (SR leukemia): > 497 µM
TGI (NCI-H23 lung): > 497 µM
GI50 (IGROV1 ovarian): > 497 µM
TGI (IGROV1 ovarian): > 497 µM
TGI (TK-10 renal): > 497 µM
GI50 (NCI-H460 lung): > 497 µM
TGI (NCI-H460 lung): > 497 µM
TGI (M19-MEL melanoma): > 497 µM
GI50 (HT29 colon): > 497 µM
TGI (HT29 colon): > 497 µM
TGI (SF-539 CNS): > 497 µM
GI50 (MALME-3M melanoma): > 497 µM
TGI (MALME-3M melanoma): > 497 µM
TGI (UACC-257 melanoma): > 497 µM
TGI (UACC-62 melanoma): > 497 µM
TGI (MOLT-4 leukemia): > 497 µM
GI50 (OVCAR-3 ovarian): > 497 µM
TGI (OVCAR-3 ovarian): > 497 µM

C=CCN1C(=O)C(=O)N(CC=C)C(=O)C1=O
TGI (786-0 renal): > 100 µM
TGI (COLO 205 colon): > 100 µM
TGI (OVCAR-4 ovarian): > 100 µM
TGI (U251 CNS): > 100 µM
TGI (CAKI-1 renal): > 100 µM
TGI (K-562 leukemia): > 100 µM
TGI (HCT-116 colon): > 100 µM
TGI (SN12C renal): > 100 µM
TGI (A498 renal): > 100 µM
TGI (SNB-75 CNS): > 100 µM
TGI (M14 melanoma): > 100 µM
TGI (LXFL 529 NSCLC): > 100 µM
TGI (SF-268 CNS): > 100 µM
TGI (RPMI-8226 leukemia): > 100 µM
TGI (NCI-H226 lung): > 100 µM
TGI (RXF 393 renal): > 100 µM
TGI (OVCAR-5 ovarian): > 100 µM
TGI (KM20L2 colon): > 100 µM
TGI (CCRF-CEM leukemia): > 100 µM
TGI (HCT-15 colon): > 100 µM
TGI (XF 498 CNS): > 100 µM
TGI (HL-60(TB) leukemia): > 100 µM
TGI (DLD-1 colon): > 100 µM
TGI (DMS 114 small cell lung): > 100 µM
TGI (SK-OV-3 ovarian): > 100 µM
TGI (A549 NSCLC): > 100 µM
TGI (EKVX NSCLC): > 100 µM
TGI (SW-620 colon): > 100 µM
TGI (NCI-H522 lung): > 100 µM
TGI (HOP-62 NSCLC): > 100 µM
TGI (HCC-2998 colon): > 100 µM
TGI (KM12 colon): > 100 µM
TGI (LOX IMVI melanoma): > 100 µM
TGI (SNB-78 CNS): > 100 µM
TGI (DMS 273 small cell lung): > 100 µM
TGI (OVCAR-8 ovarian): > 100 µM
TGI (HOP-92 NSCLC): > 100 µM
TGI (SF-295 CNS): > 100 µM
TGI (SNB-19 CNS): > 100 µM
TGI (SK-MEL-5 melanoma): > 100 µM
TGI (UO-31 renal): > 100 µM
TGI (SR leukemia): > 100 µM
TGI (NCI-H23 lung): > 100 µM
TGI (IGROV1 ovarian): > 100 µM
TGI (TK-10 renal): > 100 µM
TGI (NCI-H460 lung): > 100 µM
TGI (M19-MEL melanoma): > 100 µM
TGI (HT29 colon): > 100 µM
TGI (SF-539 CNS): > 100 µM
TGI (MALME-3M melanoma): > 100 µM
TGI (UACC-257 melanoma): > 100 µM
TGI (UACC-62 melanoma): > 100 µM
TGI (MOLT-4 leukemia): > 100 µM
TGI (OVCAR-3 ovarian): > 100 µM
